± gives the expanded uncertainty stated by the source.
Settings: Crystal; visual observation

Q: With `Nc1cccnc1` [β-aminopyridine] as the molecule, how does the Normal melting temperature read?
A: The Normal melting temperature was 64.50 ± 0.5 °C.

From the NIST ThermoML archive (doi:10.1016/j.fluid.2011.11.023)
